Patent US20230011869A1 (Hoffmann-La Roche Inc., priority 2018, published 2023)
Counter-ions that a name gives are not always drawn.

test system: Acinetobacter baumannii ATCC17961; assay: Antimicrobial susceptibility testing: 90% growth inhibitory concentration (IC90) determination, Iso-Sensitest broth; format: cell-based; conditions: Acinetobacter baumannii, ATCC17961, 16 h, 90% growth inhibitory concentration, Acinetobacter baumannii ATCC17961, Iso-Sensitest broth, OD 600 nm over 16 h; read-out: ATCC17961 IC90
Procedure, shortened: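 Growth followed by optical density at 600 nm every 20 minutes for 16 h at 35±2° C, with inhibition assessed in log phase to give IC90. Compounds tested as twofold dilution series (e.g. 50 to 0.097 μM final) against 5×10^(5) CFU/ml in Iso-Sensitest medium.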

SMILES | IC90 [nM]
COc1ccc(-c2cnc3c(Nc4ccc(C(=O)N5CCN(C(=O)[C@@]6(O)CNCC[C@@H]6O)CC5)c(C)c4)nccn23)c(F)c1F [Example 287, [4-[[3-(2,3-difluoro-4-methoxyphenyl)imidazo[1,2-a]pyrazin-8-yl]amino]-2-methylphenyl]-[4-[(3R,4S)-3,4-dihydroxypiperidine-3-carbonyl]piperazin-1-yl]methanone] | 80
COc1ccc(-c2cnc3c(Nc4ccc(C(=O)N5CCN(C(=O)[C@H]6NC[C@H](O)[C@@H]6O)CC5)c(C)c4)nccn23)cc1F [Example 233, ((2S,3R,4S)-3,4-dihydroxypyrrolidin-2-yl)(4-(4-((3-(3-fluoro-4-methoxyphenyl)imidazo[1,2-a]pyrazin-8-yl)amino)-2-methylbenzoyl)piperazin-1-yl)methanone hydrochloride] | 190
COc1ccc(-c2cnc3c(Nc4ccc(C(=O)N5CCN(C(=O)[C@@H]6CCC(C)(C)N6)CC5)c(C)c4)nccn23)c(F)c1F [Example 77, (S)-(4-(4-((3-(2,3-difluoro-4-methoxyphenyl)imidazol[1,2-a]pyrazin-8-yl)amino)-2-methylbenzoyl)piperazin-1-yl)(5,5-dimethylpyrrolidin-2-yl)methanone hydrochloride] | 83
Cc1cc(Nc2nccn3c(-c4ccc(OCC#N)c(F)c4Cl)cnc23)ccc1C(=O)N1CCN(C(=O)C2(O)CCNCC2)CC1 [Example 214, 2-[3-chloro-2-fluoro-4-[8-[4-[4-(4-hydroxypiperidine-4-carbonyl)piperazine-1-carbonyl]-3-methyl-anilino]imidazo[1,2-a]pyrazin-3-yl]phenoxy] acetonitrile formate] | 41
Cc1cc(Nc2nccn3c(-c4ccc(OCC#N)c(Cl)c4)cnc23)ccc1C(=O)N1CCN(C(=O)[C@@H]2C[C@@H](O)CN2)CC1 [Example 94, 2-(2-chloro-4-(8-((4-(4-((2S,4R)-4-hydroxypyrrolidin-2-carbonyl)piperazine-1-carbonyl)-3-methylphenyl)amino)imidazo[1,2-a]pyrazin-3-yl)phenoxy)acetonitrile] | 69

same assay, conditions: Acinetobacter baumannii, ATCC17961, 16 h, read-out: ATCC17961 IC90

SMILES | IC90 [nM]
CCc1cc(Nc2nccn3c(-c4ccc(OC(F)F)c(F)c4F)cnc23)ccc1C(=O)N1CCC(N)CC1 [Example 593, (4-aminopiperidin-1-yl)(4-((3-(4-(difluoromethoxy)-2,3-difluorophenyl)imidazo[1,2-a]pyrazin-8-yl)amino)-2-ethylphenyl)methanone formate] | 196
COc1ccc(-c2cnc3c(Nc4ccc(C(=O)N5CCN(C(=O)N6CCN[C@@H]([C@@H](C)O)C6)CC5)c(C)c4)nccn23)c(F)c1F [Example 289, [4-[[3-(2,3-difluoro-4-methoxyphenyl)imidazo[1,2-a]pyrazin-8-yl]amino]-2-methylphenyl]-[4-[(3R)-3-[(1R)-1-hydroxyethyl]piperazine-1-carbonyl]piperazin-1-yl]methanone; hydrochloride] | 89
COC[C@@H]1CN[C@H](C(=O)N2CCN(C(=O)c3ccc(Nc4nccn5c(-c6ccc(OC)c(F)c6F)cnc45)cc3C)CC2)C1 [Example 84, (4-(4-((3-(2,3-difluoro-4-methoxyphenyl)imidazo[1,2-a]pyrazin-8-yl)amino)-2-methylbenzoyl)piperazin-1-yl)((2S,4S)-4-(methoxymethyl)pyrrolidin-2-yl)methanone hydrochloride] | 76
COc1ccc(-c2cnc3c(Nc4ccc(C(=O)N5CCN(C(=O)[C@@H]6C[C@H](C)CN6)CC5)c(C)c4)nccn23)c(F)c1F [Example 282, [4-[[3-(2,3-difluoro-4-methoxyphenyl)imidazo[1,2-a]pyrazin-8-yl]amino]-2-methylphenyl]-[4-[(2S,4S)-4-methylpyrrolidine-2-carbonyl]piperazin-1-yl]methanone; hydrochloride] | 72
CCc1cc(Nc2nccn3c(-c4ccc(OC(F)F)c(F)c4F)cnc23)ccc1C(=O)N1CCC(C(=O)N2CC3(CNC3)C2)CC1 [Example 591, (4-(2,6-diazaspiro[3.3]heptane-2-carbonyl)piperidin-1-yl)(4-((3-(4-(difluoromethoxy)-2,3-difluorophenyl)imidazo[1,2-a]pyrazin-8-yl)amino)-2-ethylphenyl)methanone 2,2,2-trifluoroacetate formate] | 52
COc1ccc(-c2cnc3c(Nc4ccc(C(=O)N5CCN(C(=O)[C@@H]6C[C@@](C)(O)CN6)CC5)c(C)c4)nccn23)cc1F [Example 463, [4-[[3-(3-fluoro-4-methoxyphenyl)imidazo[1,2-a]pyrazin-8-yl]amino]-2-methylphenyl]-[4-[(2S,4R)-4-hydroxy-4-methylpyrrolidine-2-carbonyl]piperazin-1-yl]methanone; formic acid] | 132
